Assay results from the NIST ThermoML archive (doi:10.1021/je3005479).

Tests used:
[1] = refractive index (Na D-line) (dimensionless); conditions: 83.07 kPa, Liquid, Standard Abbe refractometry
[2] = Liquid; for speed of sound / kinematic viscosity: 83.07 kPa; for speed of sound: Pulse-echo method; for mass density: 87.07 kPa, Vibrating tube method; for kinematic viscosity: Capillary tube (Ostwald / Ubbelohde) method

CC(C)C1CC(C(C)C)CC(C(C)C)C1 (stereo not drawn) [1,3,5-triisopropylcyclohexane]
Conditions | kinematic viscosity, [2] [m2/s] | mass density, [2] [kg/m3] | refractive index, [1] | speed of sound, [2] [m/s]
278.15 K | – | 837.78 | – | 1405.7
283.15 K | – | 834.14 | – | 1385
288.15 K | – | 830.52 | – | 1364.8
293.15 K | 7.66e-06 | 826.89 | 1.4571 | 1344.8
298.15 K | 6.27e-06 | 823.27 | 1.4547 | 1325
303.15 K | 5.22e-06 | 819.64 | 1.4525 | 1305.5
308.15 K | 4.43e-06 | 816.02 | – | 1286.3
313.15 K | 3.81e-06 | 812.39 | – | 1267.3
318.15 K | 3.32e-06 | 808.76 | – | 1248.6
323.15 K | 2.9e-06 | 805.12 | – | 1230
328.15 K | 2.58e-06 | 801.49 | – | 1211.7
333.15 K | 2.32e-06 | 797.85 | – | 1193.6
338.15 K | 2.09e-06 | 794.21 | – | 1175.6
343.15 K | 1.9e-06 | 790.57 | – | 1158
348.15 K | 1.74e-06 | – | – | –
353.15 K | 1.6e-06 | – | – | –
358.15 K | 1.48e-06 | – | – | –
363.15 K | 1.37e-06 | – | – | –
368.15 K | 1.28e-06 | – | – | –
373.15 K | 1.19e-06 | – | – | –
